Drawing on PubChem BioAssay (NCI), this text covers TGI and GI50 for 15 molecules.

Some test systems named below: ACHN renal; HS 578T breast; K-562 leukemia; M14 melanoma; RPMI-8226 leukemia; SK-MEL-2 melanoma; SNB-19 CNS; SW-620 colon; T-47D breast; CCRF-CEM leukemia.
Experiment in all cases: growth of human tumour cells (NCI), 48 h

Structures are written as SMILES.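 In this assay, cells in 96-well plates receive the compound at five concentrations for 48 hours. Endpoints are linearly interpolated between the surrounding concentrations. Here, GI50 denotes the concentration required for 50% inhibition of growth. TGI: total growth inhibition.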 Where a SMILES comes first, the peptide text is derived from it. The star is where a group is joined. Boc = CC(C)(C)OC(=O)*; OBn = c1ccc(CO*)cc1 A value given as a limit tells only on which side of the number the result lay.

With `COc1cc(C2SCC(=O)N2c2ccc(Oc3ccc(Cl)cc3)c(Cl)c2)cc(OC)c1OC` (stereo not given), the TGI in the assay on ACHN renal is > 100 µM; in the assay on HS 578T breast, 40.7 µM; with K-562 leukemia it was > 100 µM; with M14 melanoma, 83.1 µM; in the assay with RPMI-8226 leukemia, > 100 µM; with SK-MEL-2 melanoma, 32.2 µM. Further, the TGI was > 100 µM in the assay on SNB-19 CNS, 58.3 µM with SW-620 colon and 27.5 µM with T-47D breast.
Regarding `CC(=O)c1cc2c(s1)C(=O)c1ccccc1C2=O`, the TGI with ACHN renal was 4.02 µM; in the assay on HS 578T breast it was > 67.6 µM; in the assay on K-562 leukemia, > 100 µM; with M14 melanoma, 10.8 µM; in the assay with RPMI-8226 leukemia, 26.9 µM; in the assay on SK-MEL-2 melanoma it was 15.5 µM. Moreover, the TGI in the assay on SNB-19 CNS turned out to be 5.57 µM; in the assay on SW-620 colon it was 9.67 µM; in the assay on T-47D breast, 20.6 µM.
As for `C=CC[C@@]1(C(=O)OC)[C@H](Sc2ccccc2)C1(C)C`, the TGI is > 100 µM in the assay with ACHN renal; > 100 µM in the assay with CCRF-CEM leukemia; > 100 µM with HS 578T breast; > 100 µM in the assay on M14 melanoma; 26.4 µM with RPMI-8226 leukemia; 64.1 µM in the assay on SK-MEL-2 melanoma. Further, the TGI in the assay on SNB-19 CNS, in the assay with SW-620 colon and in the assay with T-47D breast was > 100 µM in each case.
For `O=C(N[C@H]1c2ccsc2/C(=N/O)[C@H]1O)C(F)(F)F`, the TGI in the assay with CCRF-CEM leukemia, in the assay on HS 578T breast, in the assay with K-562 leukemia, in the assay with M14 melanoma, in the assay on SK-MEL-2 melanoma and in the assay on SNB-19 CNS was > 100 µM in each case. Further, the TGI with SW-620 colon and in the assay on T-47D breast was > 100 µM in each case.
`CC(C)(C)OC(=O)NC(Cc1ccccc1)C(=O)NC(Cc1ccccc1)C(=O)NCC(=O)OCc1ccccc1` (stereo not drawn) (Boc-Phe-Phe-Gly-OBn; configuration not given here): the TGI in the assay with ACHN renal is > 100 µM; in the assay with CCRF-CEM leukemia, 43.1 µM; in the assay on K-562 leukemia, 31.4 µM; in the assay on M14 melanoma, 62.7 µM; with RPMI-8226 leukemia, 39.6 µM; in the assay on SK-MEL-2 melanoma it was > 100 µM. Also, the TGI in the assay on SNB-19 CNS is > 100 µM; with SW-620 colon, 28.4 µM; in the assay with T-47D breast it was > 100 µM.
Turning to `C[C@]12CC[C@@H]3c4ccc(OC(=O)c5ccccc5)cc4CC[C@H]3[C@@H]1CC[C@@H]2Oc1c2ccccc2nc2ccccc12`, the TGI was > 50 µM in the assay with ACHN renal; 21.2 µM with CCRF-CEM leukemia; > 50 µM in the assay on HS 578T breast; 17.8 µM in the assay with K-562 leukemia; 15.9 µM in the assay on M14 melanoma; 18.1 µM in the assay on RPMI-8226 leukemia. Moreover, the TGI was > 50 µM with SK-MEL-2 melanoma, 15.5 µM in the assay on SNB-19 CNS and > 50 µM in the assay with SW-620 colon.
For the molecule `COC(=O)[C@@H]1C[C@@]2(C3C=CN(C(=O)C(F)(F)F)C=C3)c3ccccc3N(C(=O)C(F)(F)F)[C@H]2N1C(=O)OC`, the TGI in the assay on ACHN renal, in the assay with CCRF-CEM leukemia, in the assay with HS 578T breast, with K-562 leukemia, in the assay with M14 melanoma and with RPMI-8226 leukemia was > 100 µM each time. Besides, the TGI in the assay with SNB-19 CNS, with SW-620 colon and in the assay on T-47D breast was > 100 µM throughout.
Turning to `COc1ccc2nc3cc(Cl)ccc3c(NCCNCCCNC(=O)c3cc(-c4ccccc4)nc4ccccc34)c2c1`, the TGI in the assay with ACHN renal, in the assay with CCRF-CEM leukemia, in the assay with HS 578T breast, in the assay on K-562 leukemia, in the assay with M14 melanoma and in the assay with RPMI-8226 leukemia was > 100 µM in each case. The TGI in the assay with SNB-19 CNS, with SW-620 colon and in the assay with T-47D breast was > 100 µM throughout.
Turning to `O=C1c2cccc3cccc(c23)C(=O)N1CCCNOCCONCCCN1C(=O)c2cccc3cccc(c23)C1=O`, the TGI was > 100 µM in the assay on ACHN renal; 91.6 µM in the assay on CCRF-CEM leukemia; > 100 µM with HS 578T breast; > 100 µM with K-562 leukemia; > 100 µM in the assay on M14 melanoma; 74.4 µM in the assay with RPMI-8226 leukemia. For the same molecule, the TGI in the assay with SK-MEL-2 melanoma, in the assay with SNB-19 CNS and with SW-620 colon was > 100 µM in each case.
Take `C[n+]1c2ccccc2c(C(=O)Nc2ccc(S(=O)(=O)N=C(N)N)cc2)c2ccccc21`: the TGI with ACHN renal, in the assay on HS 578T breast, in the assay with K-562 leukemia, with M14 melanoma, in the assay on RPMI-8226 leukemia and in the assay on SK-MEL-2 melanoma was > 100 µM each time. For the same molecule, the TGI in the assay with SNB-19 CNS, in the assay with SW-620 colon and in the assay with T-47D breast was > 100 µM throughout.
Take `COc1ccc2c(c1)/c(=C/c1ccc(N(C)C)cc1)c1cc(-c3ccccc3)[n+](C)n12`: the TGI in the assay on ACHN renal came to 5.68 µM; in the assay on HS 578T breast it was 0.44 µM; with M14 melanoma, 1.36 µM; in the assay on SK-MEL-2 melanoma, 1.61 µM; in the assay on SNB-19 CNS it was 1.21 µM; with SW-620 colon it was 1.97 µM. Further, the GI50 in the assay on CCRF-CEM leukemia was 0.0859 µM; with K-562 leukemia, 0.0487 µM; in the assay on RPMI-8226 leukemia, 0.0555 µM.
Turning to `Cn1c2ccccc2c2c3c(c4c5ccccc5n(C)c4c21)C(=O)c1ccccc1C3=O`, the TGI in the assay on ACHN renal was 97.3 µM; with CCRF-CEM leukemia it was > 100 µM; in the assay on M14 melanoma, > 100 µM; in the assay on RPMI-8226 leukemia it was > 100 µM; in the assay on SK-MEL-2 melanoma, > 100 µM; with SNB-19 CNS, 52.4 µM. Moreover, the TGI in the assay with SW-620 colon and in the assay with T-47D breast was > 100 µM each time.
`O=C1C(Br)=C(c2ccccc2)S(=O)c2ccccc21` (stereo not given): the TGI in the assay with ACHN renal turned out to be 6.53 µM; in the assay on HS 578T breast, 80.6 µM; in the assay with K-562 leukemia, 11.8 µM; in the assay on M14 melanoma it was 27 µM; with SK-MEL-2 melanoma, 33.8 µM; in the assay on SNB-19 CNS, 39.9 µM. The TGI in the assay on SW-620 colon stood at 38.4 µM; with T-47D breast, 10.6 µM.
As to `CSc1c(C#N)c2n(c3ccccc13)c1ccccc1[n+]2C`, the TGI in the assay with ACHN renal is 50.9 µM; in the assay on CCRF-CEM leukemia it was 47.6 µM; in the assay on HS 578T breast, > 100 µM; in the assay on M14 melanoma, > 100 µM; with RPMI-8226 leukemia, 85.6 µM; in the assay with SK-MEL-2 melanoma, 39.1 µM. Besides, the TGI in the assay on SW-620 colon and with T-47D breast was > 100 µM each time.
For the molecule `COc1c2cc(C(C)(C)C)cc1Cc1cccc(c1O)Cc1cc(C(C)(C)C)cc(c1OC)Cc1cccc(c1O)Cc1cc(C(C)(C)C)cc(c1OC)Cc1cccc(c1O)C2`, the TGI with ACHN renal, in the assay with K-562 leukemia, in the assay on M14 melanoma, in the assay on RPMI-8226 leukemia, in the assay with SK-MEL-2 melanoma and with SNB-19 CNS was > 100 µM throughout. Moreover, the TGI in the assay on SW-620 colon and in the assay with T-47D breast was > 100 µM throughout.
